{"source": "patent US20110195403A1", "about": "“SYSTEMS AND METHODS FOR FERTILITY ANALYSIS” (priority 2010, published 2011)", "key": {"[1]": {"tested_on": "peroxidase", "test": "Peroxidase assay in saliva (Amplex Red)", "format": "biochemical", "method": "To determine the effect of various GRAS compounds as inhibitors of peroxidase activity, a standard assay using Amplex® Red (Life Technologies), which releases a fluorescent oxidation product.\nThe test compounds, such as GRAS materials or cocktails of same, were prepared at a concentration of 500 ppm in distilled water. For the assay, 50 μl samples of test compounds were mixed with 20-30 μl of saliva (either “pooled” or “unpooled”) prior to the addition of Amplex® Red. […] Reactions were allowed to run for 30 minutes during these assays."}, "[2]": {"tested_on": "Galactose Oxidase", "conditions": "dilute (3.5%) saliva; FIG. 13"}, "[3]": {"target": "T1, Lysozyme (Homo sapiens, UniProt P61626)", "T1 sequence (P61626 19-148)": "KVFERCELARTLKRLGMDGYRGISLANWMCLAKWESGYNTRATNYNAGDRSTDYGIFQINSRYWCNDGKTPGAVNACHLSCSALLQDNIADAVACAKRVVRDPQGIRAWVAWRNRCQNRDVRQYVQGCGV", "test": "Lysozyme inhibition saliva screening (fluorescein-labeled Micrococcus lysodeikticus)", "format": "biochemical", "conditions": "for inhibition of Lysozyme: 100% saliva samples (data not shown); for RFU Reading (60 mins): saliva, test compound prepared at 5,000 ppm; for Lysozyme Inhibitor Activity: dilute (3.5%) saliva, FIG. 12", "text": "Further details of these five compounds may also be seen in Table 5."}, "[4]": {"target": "T2, α-amylase (Homo sapiens, UniProt P0DUB6)", "T2 sequence (P0DUB6 16-511)": "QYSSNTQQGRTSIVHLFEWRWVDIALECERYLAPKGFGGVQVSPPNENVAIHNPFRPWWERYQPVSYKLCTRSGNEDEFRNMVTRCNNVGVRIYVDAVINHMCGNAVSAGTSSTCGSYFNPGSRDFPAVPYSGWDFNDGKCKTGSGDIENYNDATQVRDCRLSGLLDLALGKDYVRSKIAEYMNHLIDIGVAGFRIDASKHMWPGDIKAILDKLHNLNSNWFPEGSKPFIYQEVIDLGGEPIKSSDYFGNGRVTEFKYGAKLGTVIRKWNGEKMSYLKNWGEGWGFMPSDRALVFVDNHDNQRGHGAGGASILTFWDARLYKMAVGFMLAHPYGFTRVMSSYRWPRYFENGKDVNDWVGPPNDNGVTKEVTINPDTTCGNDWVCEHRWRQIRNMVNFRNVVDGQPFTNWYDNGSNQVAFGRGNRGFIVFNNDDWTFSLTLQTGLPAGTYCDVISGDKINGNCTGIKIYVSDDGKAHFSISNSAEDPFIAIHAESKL", "test": "α-Amylase inhibition saliva screening (2-chloro-p-nitrophenol-maltotriose substrate, absorbance 405 nm)", "format": "biochemical", "conditions": "for % Inhibition / % Std: relative to 100% Saliva Control; for α-amylase assay reading (absorbance at 405 nm), single replicate / α-amylase assay reading, Ave: test compound prepared at 5,000 ppm, saliva, 37° C.; for inhibition of α-Amylase: 100% saliva samples, FIG. 11; for α-Amylase Inhibitor Activity: dilute (3.5%) saliva, FIG. 10", "text": "Further details of these five compounds may also be seen in Table 4."}, "[5]": {"conditions": "500 ppm, pooled or unpooled saliva, 30 minutes, FIGS. 26-29"}}, "note": "Several values for one entry are separate records, joined by “and”; a condition that tells them apart may be missing. Equal entries are not always repeated. Where two headings read alike, the source gives them in different places."}
{"compound": "O=C(O)c1ccccc1", "note": "[CDI #16, Benzoic acid]", "values": [{"measurement": "peroxidase inhibition", "setting": "[1]", "result": "significant peroxidase inhibition capabilities"}]}
{"compound": "Cn1c(=O)c2c(ncn2C)n(C)c1=O", "note": "[CDI #33, Caffeine]", "values": [{"measurement": "peroxidase inhibition", "setting": "[1]; [5]", "result": "significant peroxidase inhibition capabilities"}]}
{"compound": "COc1ccc(O)c(C(C)(C)C)c1", "note": "[CDI-039, 3-tert--butyl-hydroxyanisole]", "values": [{"measurement": "Galactose Oxidase Inhibitor Activity", "setting": "[2]", "result": "shown to have Galactose Oxidase Inhibitor Activity"}, {"measurement": "peroxidase inhibition", "setting": "[1]; [5]", "result": "significant peroxidase inhibition capabilities"}]}
{"compound": "O=C(O)c1ccccc1", "note": "[CDI-40, Benzoic acid]", "values": [{"measurement": "inhibition of Lysozyme", "setting": "[3]", "result": "shown to inhibit Lysozyme"}, {"measurement": "RFU Reading (60 mins)", "setting": "[3]", "result": 35.82, "unit": "RFU"}, {"measurement": "Lysozyme Inhibitor Activity", "setting": "[3]", "result": "shown to have Lysozyme Inhibitor Activity"}, {"measurement": "Galactose Oxidase Inhibitor Activity", "setting": "[2]", "result": "shown to have Galactose Oxidase Inhibitor Activity"}]}
{"compound": "CC(=O)O", "note": "[CDI-047, Acetic acid]", "values": [{"measurement": "inhibition of Lysozyme", "setting": "[3]", "result": "shown to inhibit Lysozyme"}, {"measurement": "RFU Reading (60 mins)", "setting": "[3]", "result": 33.53, "unit": "RFU"}, {"measurement": "Lysozyme Inhibitor Activity", "setting": "[3]", "result": "shown to have Lysozyme Inhibitor Activity"}, {"measurement": "Galactose Oxidase Inhibitor Activity", "setting": "[2]", "result": "shown to have Galactose Oxidase Inhibitor Activity"}]}
{"compound": "Aluminum potassium sulfate dodecahydrate [CDI-42]", "values": [{"measurement": "Galactose Oxidase Inhibitor Activity", "setting": "[2]", "result": "shown to have Galactose Oxidase Inhibitor Activity"}, {"measurement": "% Inhibition", "setting": "[4]; 0 min", "result": 77.07, "unit": "%"}, {"measurement": "% Std", "setting": "[4]; 0 min", "result": 22.93, "unit": "%"}, {"measurement": "α-amylase assay reading (absorbance at 405 nm), single replicate", "setting": "[4]; 0 min", "result": "0.80 and 1.13 and 0.90 and 0.84"}, {"measurement": "α-amylase assay reading, Ave", "setting": "[4]; 0 min", "result": 0.92}, {"measurement": "inhibition of α-Amylase", "setting": "[4]", "result": "shown to inhibit α-Amylase"}, {"measurement": "% Inhibition", "setting": "[4]; 5 min", "result": 53.76, "unit": "%"}, {"measurement": "% Std", "setting": "[4]; 5 min", "result": 46.24, "unit": "%"}, {"measurement": "α-amylase assay reading (absorbance at 405 nm), single replicate", "setting": "[4]; 5 min", "result": "1.65 and 2.15 and 1.80 and 1.81"}, {"measurement": "α-amylase assay reading, Ave", "setting": "[4]; 5 min", "result": 1.85}, {"measurement": "% Inhibition", "setting": "[4]; 15 min", "result": 42.65, "unit": "%"}, {"measurement": "% Std", "setting": "[4]; 15 min", "result": 57.35, "unit": "%"}, {"measurement": "α-amylase assay reading (absorbance at 405 nm), single replicate", "setting": "[4]; 15 min", "result": "2.37 and 2.38 and 2.25 and 2.17"}, {"measurement": "α-amylase assay reading, Ave", "setting": "[4]; 15 min", "result": 2.29}, {"measurement": "α-Amylase Inhibitor Activity", "setting": "[4]", "result": "shown to have α-Amylase Inhibitor Activity"}, {"measurement": "peroxidase inhibition", "setting": "[1]; [5]", "result": "significant peroxidase inhibition capabilities"}]}
{"compound": "Aluminum sulfate hydrate [CDI-34]", "values": [{"measurement": "% Inhibition", "setting": "[4]; 0 min", "result": 89.96, "unit": "%"}, {"measurement": "% Std", "setting": "[4]; 0 min", "result": 10.04, "unit": "%"}, {"measurement": "α-amylase assay reading, Ave", "setting": "[4]; 0 min", "result": 0.40}, {"measurement": "α-amylase assay reading (absorbance at 405 nm), single replicate", "setting": "[4]; 0 min, sulfate hydrate", "result": "0.40 (2×) and 0.36 and 0.45"}, {"measurement": "inhibition of α-Amylase", "setting": "[4]", "result": "shown to inhibit α-Amylase"}, {"measurement": "% Inhibition", "setting": "[4]; 5 min", "result": 87.39, "unit": "%"}, {"measurement": "% Std", "setting": "[4]; 5 min", "result": 12.61, "unit": "%"}, {"measurement": "α-amylase assay reading, Ave", "setting": "[4]; 5 min", "result": 0.50}, {"measurement": "α-amylase assay reading (absorbance at 405 nm), single replicate", "setting": "[4]; 5 min, sulfate hydrate", "result": "0.49 and 0.50 (2×) and 0.52"}, {"measurement": "% Inhibition", "setting": "[4]; 15 min", "result": 85.98, "unit": "%"}, {"measurement": "% Std", "setting": "[4]; 15 min", "result": 14.02, "unit": "%"}, {"measurement": "α-amylase assay reading, Ave", "setting": "[4]; 15 min", "result": 0.56}, {"measurement": "α-amylase assay reading (absorbance at 405 nm), single replicate", "setting": "[4]; 15 min, sulfate hydrate", "result": "0.53 and 0.61 and 0.54 and 0.56"}, {"measurement": "α-Amylase Inhibitor Activity", "setting": "[4]", "result": "shown to have α-Amylase Inhibitor Activity"}]}
